Measured values from the supplement of paper PMC10307832.

Legend:
[1] = compound: CC(C)CCN1c2nc(Nc3cc(F)c(O)c(F)c3)ncc2N(C)C(=O)C1C [BI-D1870]; test: relative viability (nuclei count vs DMSO), 5 days (fraction); higher = more cells survive
Procedure, shortened: (§1)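 After an overnight hold at 37 °C, lung cancer cell lines in 1536-well plates were pinned with five library-drug doses (not always all listed), each √10 from the next, on vehicle-anchored plates. The cells stayed 5 days without fresh medium, then a one-step fix, permeabilisation and Hoechst stain preceded 4× imaging and MetaXpress nuclear counts. A plate passed only with control CV under 25% and at least one doubling. Viability is the median, over plates, of treated-well nuclei relative to vehicle-well nuclei.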

[2] = compound: O=c1ncccn1[C@@H]1O[C@H](CO)[C@@H](O)[C@H]1O [Zebularine]; test: as above
Procedure, shortened: as §1

Cell Line	relative viability ([1]; 0.04 µM)	relative viability ([1]; 0.1265 µM)	relative viability ([1]; 0.4 µM)	relative viability ([1]; 1.265 µM)	relative viability ([1]; 4 µM)	relative viability ([2]; 1 µM)	relative viability ([2]; 3.162 µM)	relative viability ([2]; 10 µM)	relative viability ([2]; 31.62 µM)	relative viability ([2]; 100 µM)
LXF-289	1.01	0.946	0.973	1.02	0.846	1.06	0.889	0.931	0.831	0.346
NCI-H23	1.21	0.874	0.868	0.939	0.575	1.1	0.91	0.632	0.983	0.881
NCI-H322M	0.964	0.907	0.82	0.728	0.748	0.98	0.928	0.784	0.888	0.673
NCI-H358	1.07	0.834	0.803	0.916	0.775	0.884	0.951	0.596	0.491	0.346
NCI-H441	1.08	0.922	0.888	1.1	1.17	1.26	0.852	0.502	0.309	0.272
NCI-H460	1.04	0.96	0.96	0.999	0.703	1.07	1	0.662	0.498	0.096
NCI-H520	0.963	0.79	1.11	0.927	0.851	1.11	0.957	0.52	0.388	0.26
NCI-H522	0.974	1.15	1.04	1.08	0.841	0.9	1.08	0.87	0.928	0.847
NCI-H596	0.986	0.912	0.939	1.08	1.03	1.12	0.954	0.781	1.06	0.989
NCI-H647	1.07	0.918	1.05	1.04	0.889	1.01	0.943	0.294	0.203	0.157
NCI-H650	1.02	0.789	1.08	0.906	0.836	0.956	0.886	0.611	0.496	0.254
NCI-H661	1.03	0.974	1	1	0.955	1.02	0.958	0.961	1.06	1.04
NCI-H727	1.1	0.888	0.934	0.79	0.91	0.906	0.811	0.726	0.976	0.92
NCI-H838	0.962	0.892	0.958	1.07	0.992	1.05	0.962	0.753	0.692	0.352
NCI-H1299	1.05	1.01	1.04	1.04	0.863	1.02	0.97	0.858	1.06	0.454
NCI-H1355	1.06	0.917	0.958	1.11	0.861	1.06	0.955	0.749	0.62	0.33
NCI-H1395	0.905	0.822	0.87	0.988	0.827	0.929	0.86	0.788	0.676	0.511
NCI-H1437	1.02	0.906	0.992	1.04	0.9	1.07	1	0.761	0.97	0.641
NCI-H1563	0.991	1.01	0.933	0.972	0.994	0.966	0.969	0.951	1.04	0.998
NCI-H1623	0.945	0.895	1.19	1.16	0.911	0.923	0.895	0.86	0.894	0.531
NCI-H1648	0.877	0.777	0.729	0.89	0.869	1.16	1.06	0.563	0.668	0.708
NCI-H1650	0.9	0.765	1	0.96	0.807	1.03	0.904	0.766	1.15	0.727
NCI-H1651	0.997	0.911	0.945	1.04	0.914	1.04	0.989	0.718	0.911	0.57
NCI-H1666	1.12	1.01	0.955	1.16	0.99	1.03	0.904	0.834	1.02	0.868
NCI-H1703	0.92	0.708	0.905	1.02	0.806	0.856	0.815	0.606	0.899	0.667
